In brackets after ≈: the same amount, converted by molar mass.
Experiments:
[1] = Aqueous (kinetic) solubility, shake-flask, phosphate buffer pH 7.4; type: physicochemical; settings: 23 °C, kinetic from dmso stock, phosphate buffer pH 7.4, 16 hours at room temperature
Experimental: Aqueous solubility (kinetic solubility) tests of the compounds were performed in phosphate buffer saline (pH 7.4) measured by shake-flask method. In this assay, DMSO stock solution of test compound is added to buffer followed by equilibration (shaking), filtration and determination of soluble amount by HPLC-UV Conditions used in the assay are summarized below.

[2] = Brain free fraction by equilibrium dialysis in rat brain tissue homogenate; type: in vitro ADME; settings: 10% rat brain tissue homogenate, Tables 2 and 3
Experimental: The extent to which compounds modulate SK2 channels in vivo is expressed as % SK2 SC100, which is the ratio of the concentration of the drug free in the brain to the measured potency of the compound on the SK2 channel. It is calculated as follows: CFB=CMB×BFF, where CMB is the concentration of compound measured by liquid chromatography mass spectrometry from brains harvested immediately following tremor recording (Table 1, “Measured Brain Concentration”). CFB is the amount of free compound not complexed with protein and therefore free to interact with the SK2 channel (Table 1, “Calculated Free Brain Concentration”). BFF is average free fraction of compound as measured by equilibrium dialysis in separate experiments (1 uM test concentration incubated in 10% rat brain tissue homogenate for 5 hours at 37° C.) (Table 1, “Brain Free Fraction”). Free drug in brain available to interact with SK2 channels (CFB) is arrived at by multiplying the measured total brain level (CMB) by the average free fraction (BFF).

[3] = molecular target: T1, SK2 channels (Homo sapiens, UniProt Q9H2S1); test: Whole-cell patch-clamp of SK2 current in HEK293 cells expressing SK2 channels; type: cell-based; settings: Table 2; concentration that produces doubling of channel current; averages from later experiments
T1 construct: expressed in transfected cells; host or cells: HEK293
Experimental: The biological activity was determined as follows. The ionic current through small-conductance Ca^2+-activated K^+ channels (SK channels, subtype 2) was measured using the whole-cell configuration of the patch-clamp technique in a patch-clamp set-up using HEK293 tissue culture cells expressing SK2 channels as described in Hougaard et al., British Journal of Pharmacology 151, 655-665, May 8, 2007, the entire teachings of which are incorporated herein by reference. In one aspect, a compound is defined to be an SK Positive Allosteric Modulator (PAM) if the compound increases current in this assay, for example, if the SC100 value of the compound is less than or equal to 10 μM as determined by this assay. The SC100 value is defined to be the concentration of compound that increases the basal current by 100%.

| SMILES | solubility kinetic at 16 h [1] [mg/mL] | fraction unbound at 5 h, 1 uM [2] | SK2 potency (SC100) [3] [µM] |
| --- | --- | --- | --- |
| Cc1csc(-c2nc(NC3CCC(F)(F)CC3)cc([C@@H](C)O)n2)n1 (single isomer, unassigned) [Compound 6] | 0.0667 (≈ 188 µM) | 0.0431 |  |
| Cc1cc(C)n(-c2nc(Nc3ccc(Cl)cc3)cc(N3CCOCC3)n2)n1 [Comparator C, reference compound] | 0.001 (≈ 2.6 µM) | 0.0016 |  |
| COc1cc(NC2CCC(F)(F)CC2)nc(-n2nc(C)cc2C)n1 [Compound 2, N-(4,4-difluorocyclohexyl)-2-(3,5-dimethyl-1H-pyrazol-1-yl)-6-methoxypyrimidin-4-amine] | 0.031 (≈ 91.9 µM) | 0.0276 |  |
| COc1cc(NC2CCC(F)(F)CC2)nc(-c2nc(C)cs2)n1 [Compound 3, N-(4,4-difluorocyclohexyl)-6-methoxy-2-(4-methylthiazol-2-yl) pyrimidin-4-amine] | 0.0709 (≈ 208 µM) | 0.0269 |  |

Now from value to compound:

| solubility kinetic at 16 h [1] [mg/mL] | fraction unbound at 5 h, 1 uM [2] | SK2 potency (SC100) [3] [µM] | SMILES |
| --- | --- | --- | --- |
| 0.0803 (≈ 227 µM) | 0.042 |  | Cc1csc(-c2nc(NC3CCC(F)(F)CC3)cc([C@H](C)O)n2)n1 (single isomer, unassigned) [Compound 5] |
|  |  | 5.8 | Cc1ccn(-c2nc(N[C@@H]3CCCC[C@H]3F)cc(N3CCOCC3)n2)n1 [Comparator B, reference compound] |
| 0.0497 (≈ 123 µM) | 0.0155 |  | FC1(F)CCC(Nc2cc(N3CCOCC3)nc(-n3ccc(C4CC4)n3)n2)CC1 [Compound 7, 2-(3-cyclopropyl-1H-pyrazol-1-yl)-N-(4,4-difluorocyclohexyl)-6-morpholinopyrimidin-4-amine] |

From patent publication US10351553B2, “Potassium channel modulators” (Cadent Therapeutics, Inc., priority 2017, dated 2019)
